Numbered stars: 1 amine (or outer) side, 2 acyl side, 3 side chain; on linkers, the order of the positions; unused ones are H or OH. Square brackets hold non-standard residues; d marks the D form. Peptide text beside a SMILES is read from it. * marks the point of attachment. 5FAM = O=C1OC2(c3ccc(O)cc3Oc3cc(O)ccc32)c2ccc(C(=O)*)cc21; NHCH2C6H4(4-CH2CONH2) = NC(=O)Cc1ccc(CN*)cc1; X1 = O=C(Cc1ccc(CN[*:1])cc1)[*:2]
Experiments:
[1] = target: T1, ASGPR (Homo sapiens, UniProt P07306); experiment: MST binding affinity of resynthesized NNP hits to ASGPR; settings: read-out: KD of ASGPR hits by MST
T1 construct: purchased R&D Systems, Inc. 4394-AS
T1 sequence (P07306 1-291): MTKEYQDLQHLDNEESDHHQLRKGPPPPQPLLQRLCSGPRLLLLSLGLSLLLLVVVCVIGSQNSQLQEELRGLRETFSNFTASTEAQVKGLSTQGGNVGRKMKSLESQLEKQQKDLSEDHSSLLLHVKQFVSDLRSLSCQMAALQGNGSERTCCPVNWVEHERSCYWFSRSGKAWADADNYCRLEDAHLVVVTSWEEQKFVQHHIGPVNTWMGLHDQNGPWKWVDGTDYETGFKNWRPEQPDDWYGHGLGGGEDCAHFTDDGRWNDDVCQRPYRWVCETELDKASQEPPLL
Description: (§1) Hit binding affinity to various targets were determined using Microscale Thermophoresis (MST). MST experiments were performed on a Monolith NT.115pico (NanoTemper Technologies GmbH, Munich, Germany). Measurements were performed at room temperature, in triplicate with incubation periods of 15, 30 and 45 minutes. […] Targets were labeled using Nanotemper Monolith 2nd Generation Protein Labeling Kits. RED-MALEIMIDE (Maleimide-647-dye) labeling kit was used for K-Ras and RED-NHS (NHS-647-dye) labeling kit was used for IL-6, IL-6R, TNFα and ASGPR. The buffer for the ASGPR contained 20 mM HEPES pH 7.4, 150 mM NaCl, 10 mM MgCl2, 2 mM CaCl2, 0.05% Pluronic F-127, and 1 mM DTT; for IL-6 contained 20 mM HEPES pH 7.4, 150 mM KCl, 10 mM MgCl2, and 0.1% Pluronic F-127; for the soluble IL-6 receptor 20 mM HEPES pH 7.4, 150 mM NaCl, 10 mM MgCl2, and 0.05% Tween-20; for K-Ras 20 mM HEPES pH 7.4, 150 mM NaCl, 10 mM MgCl2, 0.05% Tween-20 and 1 mM DTT; for TNFα 10 mM HEPES pH 7.4, 150 mM NaCl, 10 mM MgCl2, 0.05% Polysorbate-20. Triplicate data was analyzed using MO.AffinityAnalysis software (NanoTemper Technologies GmbH).

[2] = tested on: HepG2 cells (high ASGPR expressing); experiment: ASGPR uptake assay, flow cytometry, HepG2; assay type: cell-based, human
Description: The HEK293T (human embryonic kidney cells) and human hepatoma HepG2 cells were grown according to the protocols provided by the American Type Culture Collection (ATCC). When cells reached cell were seeded at ˜1.5×10^5 cells/well in 24-well culture plate for the uptake assay. After at least 16 hours of culture to allow cell attach and equilibrate, the compound treatment was set up for the uptake assay.
The fluorescein-labeled NNPs or fluorescein-labeled N-acetylgalactosamine (GalNAc) recognizing ASGRPR were added to wells at indicated concentrations and incubated for 2 hours. Two plates were prepared for each treatment condition, one serving as 4 degrees C. no internalization control that was kept on ice during incubation, while the second plate was incubated at 37 degrees C. to allow for energy dependent internalization. Following the incubation period, all plates were placed on ice and washed three times with ice-cold PBS/3% BSA/2 mM EDTA and then lifted with trypsin. Cells were transferred to a 96-well round bottom plates in FACS buffer. Cells were then analyzed by flow cytometry using LSR-HJ with HTS sampler (BD Biosciences, San Jose, CA, USA). Data (mean fluorescence intensities) and further analyzed using Flowjo software (BD Biosciences, San Jose, CA, USA). The internalized fraction was expressed as the difference between the corresponding 4 degrees C. and 37 degrees C. MFIs as previously described.

[3] = tested on: ASGPR-mediated uptake in HepG2 cells; experiment: Competitive uptake assay with asialofetuin in HepG2; assay type: cell-based, human; settings: test compound 0.3 μM; for Cellular uptake with 60 μM asialofetuin: 60 μM asialofetuin (200-fold excess); for Cellular uptake after pre-incubation with asialofetuin: asialofetuin 20 μM and 60 μM
Description: For the competitive uptake assay with the natural ligand of ASGPR (asialofetuin), cells were pre-incubated with 20 μM and 60 μM asialofetuin on ice or at 37 degrees C. for 1.5 hours, followed by the treatment with compounds for additional 2 hours before flow cytometric analysis as described above. The reduction of the uptake under asialofetuin competition was expressed by the percentage against the same treatment condition without asialofetuin.

[4] = target: T2, IL-6 (Homo sapiens, UniProt P05231); experiment: MST binding affinity of resynthesized NNP hits to IL-6; settings: read-out: KD (nM) [95% conf. int], NNP2 library hit, target IL-6, one-site binding model
T2 construct: purchased Creative Biomart IL6-12H
Description: as §1

[5] = tested on: HepG2 cells; experiment: Confocal imaging of HepG2 cell uptake; assay type: cell-based, human
Description: More particularly, FIG. 11B illustrates cell uptake of GalNAc (positive control), two NNP hits (ASGPR-9-4 and ASGPR-9-6) and a non-hit NNP (KRAS-1-14, negative control) in HepG2 (high ASGPR expressing) verses HEK293 (low ASGPR expressing) cells lines. FIG. 11C illustrates competition uptake assay of GalNAc and two NNP hits (ASGPR-9-4 and ASGPR-9-6) in HepG2 cells after preincubation with different concentrations of asialofetuin (a naturally occurring serum protein ASGPR ligand). Decrease in cell uptake with increasing concentrations of asialofetuin indicates blocking of ASGPR-mediated uptake. FIG. 11D illustrates example confocal images 1113, 1115, 1117, 1119 of HepG2 cell uptake (scale: x20 for the images 1113, 1115, 1117 and x40 for the image 1119). FL=fluorescein label; Cell nucleus staining with DAPI (blue). No uptake with the blank sample (DMSO) is seen at 4 degrees C.

Molecule	Cellular uptake with 60 μM asialofetuin [3]	Cellular uptake after pre-incubation with asialofetuin [3]	Kd [4]	also measured
CC(C)C[C@H](NC(=O)CNC(=O)[C@@H](Cc1c[nH]cn1)NC(=O)[C@@H](CCCNC(=N)N)NC(=O)[C@H]1CCCN1C(=O)Cc1ccc(CNC(=O)[C@H](Cc2ccccc2)NC(=O)[C@@H](CO)NC(=O)[C@@H](CCCNC(=N)N)NC(=O)[C@H]2CCCN2C(=O)CNC(=O)Cc2ccc(CNC(=O)[C@H](CC(C)C)NC(=O)[C@@H](CCCNC(=N)N)NC(=O)[C@@H](CCCCN)NC(=O)[C@@H](CCC(=O)O)NC(=O)[C@@H](Cc3ccccc3)NC(=O)Cc3ccc(CNC(=O)[C@H](Cc4ccccc4)NC(=O)[C@@H](CO)NC(=O)[C@@H](CCC(=O)O)NC(=O)[C@H]4CCCN4C(=O)[C@@H](CC(C)C)NC(=O)c4ccc5c(c4)C(=O)OC54c5ccc(O)cc5Oc5cc(O)ccc54)cc3)cc2)cc1)C(=O)NCc1ccc(CC(=O)N[C@H](CCCNC(=N)N)C(=O)N[C@H](Cc2ccccc2)C(=O)N2CCC[C@@H]2C(=O)N[C@@H](C(=O)NCC(=O)NCc2ccc(CC(=O)N[C@H](CC(C)C)C(=O)N3CCC[C@@H]3C(=O)N[C@H](CCCNC(=N)N)C(=O)N[C@@H](C(=O)NCC(=O)NCc3ccc(CC(N)=O)cc3)[C@H](C)O)cc2)C(C)C)cc1 [ASGPR-9-4] (5FAM-[dL][dP][dE][dS]F[X1][dF][dE][dK][dR]L[X1]G[dP][dR][dS]F[X1][dP][dR][dH]GL[X1][dR][dF][dP][dV]G[X1][dL][dP][dR][dT]G-{NHCH2C6H4(4-CH2CONH2)})	mostly abolished	decreased with increasing concentrations of asialofetuin		Kd [1]: 230 nM; Internalization compared with positive control GalNAc ([2]; HepG2, flow cytometry): significantly higher than uptake of the positive control GalNAc; Internalization (cell uptake) in HepG2 ([2]; fluorescein-labeled compounds, flow cytometry, 2 hours): significantly higher in HepG2 cells compared to in HEK293 cells
CC(C)C[C@H](NC(=O)[C@@H](CCCNC(=N)N)NC(=O)CNC(=O)Cc1ccc(CNC(=O)[C@H](CC(C)C)NC(=O)[C@@H](CC(C)C)NC(=O)[C@@H](Cc2ccc(O)cc2)NC(=O)c2ccc3c(c2)C(=O)OC32c3ccc(O)cc3Oc3cc(O)ccc32)cc1)C(=O)NCc1ccc(CC(=O)N[C@H](CCCNC(=N)N)C(=O)N[C@H](CO)C(=O)N[C@@H](Cc2ccccc2)C(=O)NCc2ccc(CC(=O)N[C@H](Cc3ccccc3)C(=O)N[C@H](CCCNC(=N)N)C(=O)N[C@@H](C)C(=O)NCc3ccc(CC(=O)N[C@H](CCC(=O)O)C(=O)N[C@H](CCCCN)C(=O)N[C@@H](Cc4ccccc4)C(=O)NCc4ccc(CC(=O)N[C@H](CCC(=O)O)C(=O)N[C@H](CCCNC(=N)N)C(=O)N[C@@H](CC(C)C)C(=O)NCc5ccc(CC(=O)N[C@H](C)C(=O)N[C@H](CCCNC(=N)N)C(=O)N[C@@H](CC(C)C)C(=O)NCc6ccc(CC(=O)N7CCC[C@@H]7C(=O)N[C@H](CCCNC(=N)N)C(=O)N[C@@H](C)C(=O)NCc7ccc(CC(=O)N[C@H](Cc8ccc(O)cc8)C(=O)N[C@H](CCCNC(=N)N)C(=O)N[C@@H](Cc8ccccc8)C(=O)NCc8ccc(CC(N)=O)cc8)cc7)cc6)cc5)cc4)cc3)cc2)cc1 [IL6-65-7, Fluorescein-(D)Tyr-(D)Leu-(L)Leu-PAM-Gly-(D)Arg-(L)Leu-PAM-(D)Arg-(D)Ser-(L)Phe-PAM-(D)Phe-(D)Arg-(L)Ala-PAM-(D)Glu-(D)Lys-(L)Phe-PAM-(D)Glu-(D)Arg-(L)Leu-PAM-(D)Ala-(D)Arg-(L)Leu- PAM-(D)Pro-(D)Arg-(L)Ala-PAM-(D)Tyr-(D)Arg-(L)Phe-PAM] (5FAM-[dY][dL]L[X1]G[dR]L[X1][dR][dS]F[X1][dF][dR]A[X1][dE][dK]F[X1][dE][dR]L[X1][dA][dR]L[X1][dP][dR]A[X1][dY][dR]F-{NHCH2C6H4(4-CH2CONH2)})			210 nM	
CC(C)C[C@H](NC(=O)[C@@H](CCCNC(=N)N)NC(=O)CNC(=O)Cc1ccc(CNC(=O)[C@H](CC(C)C)NC(=O)[C@@H](CC(C)C)NC(=O)[C@@H](Cc2ccc(O)cc2)NC(=O)c2ccc3c(c2)C(=O)OC32c3ccc(O)cc3Oc3cc(O)ccc32)cc1)C(=O)NCc1ccc(CC(=O)N[C@H](CCCNC(=N)N)C(=O)N[C@H](CO)C(=O)N[C@@H](Cc2ccccc2)C(=O)NCc2ccc(CC(=O)N3CCC[C@@H]3C(=O)N[C@H](CCCNC(=N)N)C(=O)N[C@H](C(=O)NCc3ccc(CC(=O)N[C@H](Cc4c[nH]c5ccccc45)C(=O)N[C@H](CCCNC(=N)N)C(=O)N[C@H](C(=O)NCc4ccc(CC(=O)N[C@H](CC(N)=O)C(=O)N[C@H](CCCNC(=N)N)C(=O)N[C@@H](Cc5ccccc5)C(=O)NCc5ccc(CC(=O)N[C@H](CCC(=O)O)C(=O)N[C@H](Cc6ccc(O)cc6)C(=O)N[C@H](C(=O)NCc6ccc(CC(=O)N7CCC[C@@H]7C(=O)N[C@H](CCCNC(=N)N)C(=O)N[C@@H](C)C(=O)NCc7ccc(CC(=O)N[C@H](Cc8ccc(O)cc8)C(=O)N[C@H](CCCNC(=N)N)C(=O)N[C@@H](Cc8ccccc8)C(=O)NCc8ccc(CC(N)=O)cc8)cc7)cc6)C(C)C)cc5)cc4)C(C)C)cc3)C(C)C)cc2)cc1 [IL6-65-11, Fluorescein-(D)Tyr-(D)Leu-(L)Leu-PAM-Gly-(D)Arg-(L)Leu-PAM-(D)Arg-(D)Ser-(L)Phe-PAM-(D)Pro-(D)Arg-(L)Val-PAM-(D)Trp-(D)Arg-(L)Val-PAM-(D)Asn-(D)Arg-(L)Phe-PAM-(D)Glu-(D)Tyr-(L)Val- PAM-(D)Pro-(D)Arg-(L)Ala-PAM-(D)Tyr-(D)Arg-(L)Phe-PAM] (5FAM-[dY][dL]L[X1]G[dR]L[X1][dR][dS]F[X1][dP][dR]V[X1][dW][dR]V[X1][dN][dR]F[X1][dE][dY]V[X1][dP][dR]A[X1][dY][dR]F-{NHCH2C6H4(4-CH2CONH2)})			25 nM	
THA-(GalNAc)3-(OH)9-1,3-propanediamine-fluorescein [reference compound]	mostly abolished	decreased with increasing concentrations of asialofetuin		HepG2 cell uptake, confocal images, 4 degrees C. ([5]; 4 degrees C.): no uptake; HepG2 cell uptake, confocal images, 37 degrees C. ([5]; 37 degrees C.): is seen at 37 °C
